Test results reported in patent US7368443B2, “2,6-disubstituted piperidines and piperazine compounds” (University of Kentucky Research Foundation, priority 1999, dated 2008).
pIC50, pKi: −log10 of the molar value. Like-named read-outs stand apart in the source and are kept apart here.

Key:
α4β2* nicotinic receptor [1] = molecular target: T1, α4β2* nicotinic receptor (Rattus norvegicus, UniProt P09483+P12390); assay: High affinity [3H]nicotine binding assay; design: The pellet containing the striatal membranes was resuspended; from tissue; host or cells: rat striatal membranes
T1 sequence (P09483 31-630): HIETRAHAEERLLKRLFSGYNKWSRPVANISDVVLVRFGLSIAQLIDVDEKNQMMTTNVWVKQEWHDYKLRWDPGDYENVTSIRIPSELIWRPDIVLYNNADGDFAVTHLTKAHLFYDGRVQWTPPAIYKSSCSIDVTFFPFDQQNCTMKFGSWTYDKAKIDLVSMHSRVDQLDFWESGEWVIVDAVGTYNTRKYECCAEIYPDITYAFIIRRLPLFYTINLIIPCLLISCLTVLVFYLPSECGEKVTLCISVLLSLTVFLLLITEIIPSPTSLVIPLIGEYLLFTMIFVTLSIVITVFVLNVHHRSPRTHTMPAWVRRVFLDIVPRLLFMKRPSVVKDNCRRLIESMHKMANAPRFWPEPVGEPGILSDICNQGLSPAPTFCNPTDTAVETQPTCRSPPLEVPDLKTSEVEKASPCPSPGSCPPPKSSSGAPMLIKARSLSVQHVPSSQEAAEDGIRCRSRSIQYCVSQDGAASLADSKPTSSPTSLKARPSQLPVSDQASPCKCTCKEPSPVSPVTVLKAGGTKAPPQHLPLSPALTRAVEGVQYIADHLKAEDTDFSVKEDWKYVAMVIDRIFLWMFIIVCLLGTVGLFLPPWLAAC
T1 sequence (P12390 25-500): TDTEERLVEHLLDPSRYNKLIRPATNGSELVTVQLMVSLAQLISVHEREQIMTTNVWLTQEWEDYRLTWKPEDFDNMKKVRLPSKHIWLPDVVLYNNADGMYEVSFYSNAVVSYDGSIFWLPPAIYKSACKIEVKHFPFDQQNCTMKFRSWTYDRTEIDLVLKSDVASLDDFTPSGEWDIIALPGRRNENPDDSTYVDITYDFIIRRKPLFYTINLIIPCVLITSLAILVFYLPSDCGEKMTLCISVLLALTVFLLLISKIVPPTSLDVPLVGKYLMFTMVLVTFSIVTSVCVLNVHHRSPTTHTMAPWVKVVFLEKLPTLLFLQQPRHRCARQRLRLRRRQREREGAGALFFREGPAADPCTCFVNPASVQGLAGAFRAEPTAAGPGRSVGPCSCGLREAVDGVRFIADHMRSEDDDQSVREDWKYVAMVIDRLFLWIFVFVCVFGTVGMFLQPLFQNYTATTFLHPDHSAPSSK

α6β2* nicotinic receptor = α6β2* nicotinic receptor (Rattus norvegicus, UniProt P12390+P43143); assay: Nicotine-evoked [3H]DA overflow from superfused striatal slices; format: cell-based
Sequence of α6β2* nicotinic receptor (P43143 31-493): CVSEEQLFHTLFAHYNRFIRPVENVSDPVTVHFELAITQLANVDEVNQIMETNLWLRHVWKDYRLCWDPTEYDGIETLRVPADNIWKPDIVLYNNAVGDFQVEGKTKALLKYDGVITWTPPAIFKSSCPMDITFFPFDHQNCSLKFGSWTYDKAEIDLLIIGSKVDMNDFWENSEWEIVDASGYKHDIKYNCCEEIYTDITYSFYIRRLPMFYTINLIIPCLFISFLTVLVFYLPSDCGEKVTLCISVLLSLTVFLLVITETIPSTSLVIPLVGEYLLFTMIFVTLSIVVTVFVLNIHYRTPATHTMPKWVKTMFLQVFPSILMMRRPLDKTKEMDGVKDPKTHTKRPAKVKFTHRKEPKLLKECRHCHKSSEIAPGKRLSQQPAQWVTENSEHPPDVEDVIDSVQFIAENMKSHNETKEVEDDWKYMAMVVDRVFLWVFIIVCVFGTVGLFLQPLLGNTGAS
Sequence of α6β2* nicotinic receptor (P12390 25-500): as the sequence (P12390 25-500) above

α4β2* nicotinic receptor [2] = molecular target: T1, α4β2* nicotinic receptor; assay: Nicotine-evoked 86Rb+ efflux assay, thalamic synaptosomes; format: biochemical; design: from tissue; details: read-out: Inhibition of Nicotine-Evoked 86Rb+ Efflux (IC50) α4β2*
[3] = molecular target: T2, serotonin transporter (SERT) (Rattus norvegicus, UniProt P31652); assay: [3H]5-HT uptake assay, hippocampal synaptosomes; format: biochemical; details: for pIC50: Table 4, earlier studies
T2 construct: Rat hippocampus was homogenized in 20 mL cold 0.32 M sucrose; from tissue; host or cells: rat hippocampal synaptosomes
T2 sequence (P31652 whole entry): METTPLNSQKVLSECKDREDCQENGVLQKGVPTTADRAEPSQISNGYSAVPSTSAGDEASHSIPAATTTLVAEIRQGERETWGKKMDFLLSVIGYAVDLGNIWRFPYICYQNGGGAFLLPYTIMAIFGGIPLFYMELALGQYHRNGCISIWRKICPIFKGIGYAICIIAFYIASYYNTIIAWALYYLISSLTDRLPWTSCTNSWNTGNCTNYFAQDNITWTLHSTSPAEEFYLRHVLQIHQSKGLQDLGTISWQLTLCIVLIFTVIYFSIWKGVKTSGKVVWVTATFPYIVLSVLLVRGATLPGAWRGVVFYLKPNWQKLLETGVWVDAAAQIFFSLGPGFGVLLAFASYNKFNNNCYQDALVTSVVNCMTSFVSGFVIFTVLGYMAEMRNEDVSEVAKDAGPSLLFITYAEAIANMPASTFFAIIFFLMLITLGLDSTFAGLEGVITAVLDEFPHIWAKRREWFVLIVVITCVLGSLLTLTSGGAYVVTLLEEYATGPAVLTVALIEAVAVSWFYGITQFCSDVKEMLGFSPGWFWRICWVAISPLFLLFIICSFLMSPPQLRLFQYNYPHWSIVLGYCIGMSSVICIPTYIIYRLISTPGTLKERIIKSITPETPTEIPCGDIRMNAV

α7* nicotinic receptor = molecular target: T3, α7* nicotinic receptor (Rattus norvegicus, UniProt Q05941); assay: [3H]Methyllycaconitine ([3H]MLA) binding assay; details: Table 1; rat whole brain membranes; read-out: [3H]MLA Binding (Ki) α7*
T3 construct: Whole rat brain (minus cortex, striatum and cerebellum) was homogenized; from tissue; host or cells: rat whole brain membranes (minus cortex, striatum and cerebellum)
T3 sequence (Q05941 23-502): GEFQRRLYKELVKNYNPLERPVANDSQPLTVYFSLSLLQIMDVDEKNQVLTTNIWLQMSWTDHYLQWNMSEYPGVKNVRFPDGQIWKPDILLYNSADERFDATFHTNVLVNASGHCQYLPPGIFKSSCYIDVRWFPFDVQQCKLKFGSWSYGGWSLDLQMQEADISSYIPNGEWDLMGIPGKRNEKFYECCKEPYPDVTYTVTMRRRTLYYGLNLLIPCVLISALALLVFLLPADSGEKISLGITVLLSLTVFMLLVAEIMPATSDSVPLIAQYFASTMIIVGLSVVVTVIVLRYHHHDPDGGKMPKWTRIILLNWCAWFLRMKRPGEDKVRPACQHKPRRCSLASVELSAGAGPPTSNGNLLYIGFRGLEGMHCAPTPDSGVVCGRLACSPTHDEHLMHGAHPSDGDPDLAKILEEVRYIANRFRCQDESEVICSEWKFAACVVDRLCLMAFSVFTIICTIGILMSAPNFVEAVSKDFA

[4] = molecular target: T4, dopamine transporter (DAT) (Rattus norvegicus, UniProt P23977); assay: [3H]Dopamine uptake assay, striatal synaptosomes; format: biochemical
T4 construct: Striata were homogenized in 20 ml of ice-cold sucrose solution; from tissue; host or cells: striatal synaptosomes
T4 sequence (P23977 whole entry): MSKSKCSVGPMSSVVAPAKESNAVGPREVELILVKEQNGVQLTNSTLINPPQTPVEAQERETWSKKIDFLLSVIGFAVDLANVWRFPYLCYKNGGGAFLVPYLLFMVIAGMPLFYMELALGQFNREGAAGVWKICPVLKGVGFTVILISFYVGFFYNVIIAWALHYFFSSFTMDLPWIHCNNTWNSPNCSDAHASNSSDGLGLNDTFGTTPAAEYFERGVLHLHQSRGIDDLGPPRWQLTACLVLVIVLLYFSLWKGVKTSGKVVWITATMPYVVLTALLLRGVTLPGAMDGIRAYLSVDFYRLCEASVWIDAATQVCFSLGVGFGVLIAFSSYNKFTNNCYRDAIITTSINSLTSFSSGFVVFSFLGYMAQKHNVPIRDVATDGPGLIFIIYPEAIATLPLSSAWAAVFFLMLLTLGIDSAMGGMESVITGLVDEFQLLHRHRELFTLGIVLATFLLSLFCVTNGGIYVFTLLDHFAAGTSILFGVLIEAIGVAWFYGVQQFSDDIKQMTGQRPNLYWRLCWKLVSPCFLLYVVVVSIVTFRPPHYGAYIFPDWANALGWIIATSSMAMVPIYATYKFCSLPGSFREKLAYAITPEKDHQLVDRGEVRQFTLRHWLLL

[5] = test system: methamphetamine-evoked endogenous DA release from striatal slices; assay: Methamphetamine-evoked endogenous DA overflow from superfused striatal slices; format: cell-based; details: read-out: Inhibition of Methamphetamine Evoked DA Overflow IC50 (Mean)
α3β4* nicotinic receptor = α3β4* nicotinic receptor (Rattus norvegicus, UniProt P04757+P12392); assay: Nicotine-evoked [3H]NE overflow from superfused hippocampal slices; format: cell-based; details: inhibition of 10 μM S(−)-nicotine
Sequence of α3β4* nicotinic receptor (P04757 26-499): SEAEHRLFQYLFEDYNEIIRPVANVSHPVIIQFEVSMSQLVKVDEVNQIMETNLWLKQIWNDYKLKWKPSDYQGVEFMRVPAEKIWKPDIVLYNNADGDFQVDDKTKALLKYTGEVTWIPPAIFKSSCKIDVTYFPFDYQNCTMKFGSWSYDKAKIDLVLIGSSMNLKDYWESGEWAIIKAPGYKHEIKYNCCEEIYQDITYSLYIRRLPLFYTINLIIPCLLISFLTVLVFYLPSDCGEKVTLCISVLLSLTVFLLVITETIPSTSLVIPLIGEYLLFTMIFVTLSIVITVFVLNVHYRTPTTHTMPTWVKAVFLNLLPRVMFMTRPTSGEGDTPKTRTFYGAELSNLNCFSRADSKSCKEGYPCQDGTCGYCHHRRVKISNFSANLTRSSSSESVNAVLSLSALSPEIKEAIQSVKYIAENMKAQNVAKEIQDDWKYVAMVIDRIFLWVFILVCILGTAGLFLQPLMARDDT
Sequence of α3β4* nicotinic receptor (P12392 21-495): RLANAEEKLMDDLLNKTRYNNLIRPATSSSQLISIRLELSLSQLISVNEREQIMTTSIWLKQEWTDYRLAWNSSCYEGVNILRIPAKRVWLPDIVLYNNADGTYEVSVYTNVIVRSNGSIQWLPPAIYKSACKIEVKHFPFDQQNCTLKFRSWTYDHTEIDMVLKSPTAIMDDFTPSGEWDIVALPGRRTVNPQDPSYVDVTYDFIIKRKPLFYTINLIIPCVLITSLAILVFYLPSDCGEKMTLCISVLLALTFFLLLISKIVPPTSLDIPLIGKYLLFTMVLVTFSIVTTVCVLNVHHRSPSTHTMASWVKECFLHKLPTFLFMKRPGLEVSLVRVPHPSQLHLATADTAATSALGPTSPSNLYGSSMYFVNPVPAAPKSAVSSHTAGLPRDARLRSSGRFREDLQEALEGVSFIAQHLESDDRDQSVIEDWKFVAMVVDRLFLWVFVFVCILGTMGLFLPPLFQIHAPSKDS

VMAT2 [6] = molecular target: T5, VMAT2 (Rattus norvegicus, UniProt Q01827); assay: biochemical
T5 sequence (Q01827 whole entry): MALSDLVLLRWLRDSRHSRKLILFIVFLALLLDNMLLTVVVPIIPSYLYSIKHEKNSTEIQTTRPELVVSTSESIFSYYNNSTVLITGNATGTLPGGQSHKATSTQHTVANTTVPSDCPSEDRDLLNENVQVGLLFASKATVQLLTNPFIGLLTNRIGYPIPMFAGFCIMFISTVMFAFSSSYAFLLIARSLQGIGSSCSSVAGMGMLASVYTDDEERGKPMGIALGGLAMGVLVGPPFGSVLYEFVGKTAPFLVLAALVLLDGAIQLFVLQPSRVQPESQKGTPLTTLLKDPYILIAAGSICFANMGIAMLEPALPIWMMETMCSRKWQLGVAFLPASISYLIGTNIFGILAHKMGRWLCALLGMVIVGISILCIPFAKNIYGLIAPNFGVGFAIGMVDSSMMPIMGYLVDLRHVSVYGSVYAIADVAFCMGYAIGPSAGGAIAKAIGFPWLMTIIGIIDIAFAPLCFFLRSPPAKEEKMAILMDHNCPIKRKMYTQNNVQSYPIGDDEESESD

VMAT2 [7] = molecular target: T5, VMAT2; assay: [3H]Dihydrotetrabenazine ([3H]DTBZ) binding assay, synaptic vesicles; details: inhibition of [3H]DTBZ binding Ki, text b58
[8] = Table 1, rat striatal membranes, read-out: [3H]Nicotine Binding (Ki) α4β2*
[9] = Table 3, earlier study, read-out: Ki [3H]-Nicotine Binding Assay
[10] = Table 1, inhibition of 10 μM S(−)-nicotine, NI: no inhibition, read-out: Inhibition of Nicotine-Evoked [3H]DA Overflow (IC50) α6β2*
[11] = Table 1, read-out: [3H]5-HT Uptake (Ki) SERT
[12] = Table 1, read-out: [3H]DA Uptake (Ki)
[13] = Table 3, earlier study, read-out: Ki [3H]-Dopamine Uptake Assay
[14] = Table 4, earlier studies, read-out: [3H]Nicotine Binding (Ki) α4β2*
[15] = inhibition of nicotine-evoked [3H]DA overflow IC50

SMILES	pKi (α4β2* nicotinic receptor [1]; [8])	pKi (α4β2* nicotinic receptor [1]; [9])	pIC50 (α6β2* nicotinic receptor; [10])	pIC50 (α4β2* nicotinic receptor [2])	pKi [3, 11]	pKi (α7* nicotinic receptor)	pKi [4, 12]	pKi [4, 13]	pKi (α4β2* nicotinic receptor [1]; [14])	selectivity as inhibitor of α6β2* (and α3β4*) subtypes of nAChR compared to inhibition of SERT function (α6β2* nicotinic receptor) [fold]	selectivity for the α6β2* subtype of nAChR relative to interaction with the MTBZ site on VMAT2 (α6β2* nicotinic receptor) [fold]	selectivity for α6β2* (and α3β4*) subtypes of nAChR compared to α4β2* or α7* subtypes (α6β2* nicotinic receptor) [fold]	pIC50 (α6β2* nicotinic receptor; [15])	pIC50 ([5]; Rattus norvegicus)	pIC50 (α3β4* nicotinic receptor; Table 1)	pIC50 (VMAT2 [6])	pIC50 [3]	pKi (VMAT2 [7])	also measured
Cc1ccc(S(=O)(=O)O[C@@H](C[C@H]2CCC[C@@H](CC(=O)c3ccccc3)N2C)c2ccccc2)cc1 [Compound 2, 2S,6R,8S-2-[6-(β-Para-toluenesulfonyloxyphenethyl)-1-methyl-2-piperidyl]-acetophenone]	7.96	8.39	6.00	8.70	5.78	4.97	4.54	4.41	–	–	–	–	–	–	–	–	–	–	–
CN1[C@@H](CC(=O)c2ccccc2)CCC[C@H]1/C=C/c1ccccc1 [Compound 5, N-methyl-2R-phenacyl-6S-trans-styrylpiperidine]	6.36	6.89	–	6.52	5.73	4.47	5.76	5.52	–	–	–	–	–	–	–	–	–	–	inhibition of DAT, potency compared with lobeline ([4]; Table 1 data): 17 fold; inhibition of DAT, potency compared with lobeline ([4]; earlier study (Table 3)): 10 fold
CN1[C@H](/C=C/c2ccccc2)CCC[C@@H]1/C=C/c1ccccc1 [Compound 14, N-methyl-2,6-cis-di-trans-styrylpiperidine]	< 4.00	< 4.00	–	< 5.00	5.05	–	6.24	6.10	4.96	770	43	> 370	9.52	5.90 to 6.37	8.00	5.89	4.63	–	pIC50 (α6β2* nicotinic receptor; Inhibition of Nicotine-Evoked [3H]DA Overflow (IC50) α6β2*): 7.52; more potent at inhibiting nicotine-evoked [3H]DA and [3H]NE release compared to Compound 15 (α6β2* nicotinic receptor; rat striatal and hippocampal slices, earlier data): 18 fold; pIC50 ([5]; superfused rat striatal slices): 6.15; pIC50 (α3β4* nicotinic receptor; Table 4, earlier studies): 7.68; melting point: 149 to 150 °C
CN1[C@H](/C=C/c2ccccc2)CCC[C@H]1/C=C/c1ccccc1 [Compound 15, N-methyl-2S,6S-trans-di-trans-styrylpiperidine]	4.92	–	6.00	–	6.42	–	6.59	–	4.89	2.2	9.5	> 24	6.00 to 7.00	< 4.00	7.52	5.29	5.92	–	loss of affinity for the nicotinic receptor compared to lobeline (α4β2* nicotinic receptor [1]; Table 1 data, [3H]nicotine binding): 1000 fold; pIC50 (α6β2* nicotinic receptor; Table 4, earlier studies, inhibition of 10 μM S(−)-nicotine, read-out: Inhibition of Nicotine-Evoked [3H]DA Overflow (IC50) α6β2*): 6.27; more potent inhibiting the function of SERT than Compound 14 ([3]; earlier data): 19 fold; pKi ([3]; read-out: inhibition of serotonin uptake Ki): 6.42 to 8.00
COc1ccccc1CC[C@H]1CCC[C@@H](CCc2ccccc2OC)N1C [Compound 37, N-methyl-2,6-cis-di-(o-methoxyphenethyl)piperidine]	< 4.00	–	–	–	–	4.59	–	–	–	–	–	–	–	–	–	–	–	6.17 to 6.37	–
COc1cccc(CC[C@H]2CCC[C@@H](CCc3cccc(OC)c3)N2C)c1 [Compound 39, N-methyl-2,6-cis-di-(m-methoxyphenethyl)piperidine]	< 4.00	–	–	–	–	4.59	–	–	–	–	–	–	–	–	–	–	–	6.17 to 6.37	–
